Legend:
anesthetized dogs = experiment: Toxicology study: cardiovascular and respiratory function in anesthetized dogs; type: in vivo, Beagle dogs
Procedure: The effects of 3-(3,4-dimethoxy-phenyl)-3-(1-oxo-1,3-dihydro-isoindol-2-yl)-propionamide on cardiovascular and respiratory function are investigated in anesthetized dogs. Two groups of Beagle dogs (2/sex/group) are used. One group receives three doses of vehicle only and the other receives three ascending doses of the compound (200, 400, and 800 mg/kg). In all cases, doses of the compound or vehicle are successively administered via infusion through the jugular vein separated by intervals of at least 30 minutes.

[1] = test system: TNF-α production following LPS-stimulation of human PBMC and human whole blood; experiment: Modulation of cytokine production, in vitro studies; type: cell-based; details: compared with thalidomide
From the text: In a specific embodiment, the pharmacological properties of 3-(3,4-dimethoxy-phenyl)-3-(1-oxo-1,3-dihydro-isoindol-2-yl)-propionamide are characterized in in vitro studies. Studies examine the effects of the compound on the production of various cytokines. Inhibition of TNF-α production following LPS-stimulation of human PBMC and human whole blood by the compound is investigated in vitro. […] The pharmacological effects of 3-(3,4-dimethoxy-phenyl)-3-(1-oxo-1,3-dihydro-isoindol-2-yl)-propionamide may derive from its action as an inhibitor of the generation of inflammatory cytokines.

## COc1ccc(C(CC(N)=O)N2Cc3ccccc3C2=O)cc1OC (stereo not shown) [3-(3,4-dimethoxy-phenyl)-3-(1-oxo-1,3-dihydro-isoindol-2-yl)-propionamide]
Anesthetized dogs; all doses (200, 400, and 800 mg/kg), infusion through the jugular vein, compared to vehicle control group
  cardiovascular and respiratory changes: minimal
Anesthetized dogs; following the low dose, only statistically significant difference between vehicle and treatment groups
  arterial blood pressure: small increase
Anesthetized dogs; higher doses
  arterial blood pressure effect: not seen
[1]
  pharmacological activity profile, potency relative to thalidomide: five to fifty times more potent than thalidomide

Source: patent publication US7354948B2, “Methods for treatment of chronic uveitis using cyclopropyl-n-{2-[(1S)-1-(3-ethoxy-4-methoxyphenyl)-2-(methylsulfonyl)ethyl]-3-oxoisoindoline-4-yl}carboxamide” (Celgene Corporation, priority 2002, dated 2008)
